Assay results published in US8410085B2, “Phospholipid compositions and uses thereof” (Baylor College of Medicine, priority 2007, dated 2013).
pEC50: −log10 of the molar value. “And” between values parts separate entries of the source, which are not always exact repeats. Equal values may be shown once. “Also recorded” adds a separate entry of the source.

Experiments:
RXRα = RXRα (Homo sapiens, UniProt P19793); test: nuclear receptor cotransfection (RE-tk-luc), HeLa cells; details: 100 μM
wild type male mice = test: bile acids, serum glucose and NEFA in wild type mice after oral gavage; type: in vivo, mouse; details: 100 mg/kg oral
LRH-1 [1] = target: T1, LRH-1 (Homo sapiens, UniProt O00482); details: CV-1 and HEK293T cells, compared with HeLa
T1 sequence (O00482 whole entry): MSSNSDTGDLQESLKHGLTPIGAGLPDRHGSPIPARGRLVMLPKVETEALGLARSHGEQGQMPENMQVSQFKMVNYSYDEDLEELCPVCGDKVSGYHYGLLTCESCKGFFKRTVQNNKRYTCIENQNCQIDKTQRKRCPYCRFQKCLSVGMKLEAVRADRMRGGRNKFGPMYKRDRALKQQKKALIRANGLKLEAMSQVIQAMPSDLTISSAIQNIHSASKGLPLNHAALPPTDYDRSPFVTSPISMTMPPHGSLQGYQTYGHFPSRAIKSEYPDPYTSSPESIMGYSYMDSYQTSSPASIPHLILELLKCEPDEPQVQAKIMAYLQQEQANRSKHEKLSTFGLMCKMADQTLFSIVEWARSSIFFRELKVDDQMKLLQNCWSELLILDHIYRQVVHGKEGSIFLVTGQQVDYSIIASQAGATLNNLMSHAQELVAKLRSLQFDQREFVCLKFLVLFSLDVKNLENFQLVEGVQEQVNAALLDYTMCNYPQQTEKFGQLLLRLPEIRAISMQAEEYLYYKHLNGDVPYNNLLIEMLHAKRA

human PXR = human PXR (Homo sapiens, UniProt O75469); test: nuclear receptor cotransfection (RE-tk-luc), HeLa cells; details: 100 μM
LRH-1 [2] = test: hepatic gene expression in LRH-1 f/f mice infected with Ad-Cre; type: in vivo, mouse; details: 100 mg/kg oral, 100 mg/kg
Description: (§1) Total liver RNA was isolated and prepared for the cDNA. […] Total liver RNA was isolated and prepared for cDNA.

LRH-1 [3] = target: T1, LRH-1; test: LRH-1 Luc reporter in C3A HepG2 cells (endogenous hLRH-1); details: C3A/HepG2 cells or cells with non-target control siRNAs
FXR = FXR (Homo sapiens, UniProt Q96RI1); test: nuclear receptor cotransfection (RE-tk-luc), HeLa cells; details: 100 μM
SF-1 = SF-1 (Homo sapiens, UniProt Q13285); test: SF-1 transactivation, reporter cotransfection in HeLa cells; details: 100 μM
mouse LRH-1 = mouse LRH-1 (Mus musculus, UniProt P45448); test: mouse LRH-1 transactivation, reporter cotransfection
Chain of mouse LRH-1 (P45448 whole entry): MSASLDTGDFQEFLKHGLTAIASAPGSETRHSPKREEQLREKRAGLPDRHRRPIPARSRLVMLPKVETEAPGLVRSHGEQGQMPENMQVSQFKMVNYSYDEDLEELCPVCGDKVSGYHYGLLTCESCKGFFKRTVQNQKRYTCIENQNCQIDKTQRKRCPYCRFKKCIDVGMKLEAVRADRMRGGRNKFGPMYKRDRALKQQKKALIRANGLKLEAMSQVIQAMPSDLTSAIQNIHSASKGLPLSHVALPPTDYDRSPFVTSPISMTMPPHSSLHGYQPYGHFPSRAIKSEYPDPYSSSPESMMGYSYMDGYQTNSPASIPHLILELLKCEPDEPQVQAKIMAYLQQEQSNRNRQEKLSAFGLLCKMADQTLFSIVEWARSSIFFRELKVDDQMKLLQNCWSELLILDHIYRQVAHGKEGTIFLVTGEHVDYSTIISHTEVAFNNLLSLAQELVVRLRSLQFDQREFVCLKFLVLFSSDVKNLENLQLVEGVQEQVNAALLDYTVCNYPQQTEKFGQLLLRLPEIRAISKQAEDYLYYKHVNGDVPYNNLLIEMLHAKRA

LRH-1 [4] = target: T1, LRH-1; test: Oct4 proximal promoter (Oct4-PP Luc) activation by hLRH-1 in COS-1 cells
RARβ = RARβ (Homo sapiens, UniProt P10826); test: nuclear receptor cotransfection (RE-tk-luc), HeLa cells; details: 100 μM
Chain of RARβ (P10826 whole entry, species assumed): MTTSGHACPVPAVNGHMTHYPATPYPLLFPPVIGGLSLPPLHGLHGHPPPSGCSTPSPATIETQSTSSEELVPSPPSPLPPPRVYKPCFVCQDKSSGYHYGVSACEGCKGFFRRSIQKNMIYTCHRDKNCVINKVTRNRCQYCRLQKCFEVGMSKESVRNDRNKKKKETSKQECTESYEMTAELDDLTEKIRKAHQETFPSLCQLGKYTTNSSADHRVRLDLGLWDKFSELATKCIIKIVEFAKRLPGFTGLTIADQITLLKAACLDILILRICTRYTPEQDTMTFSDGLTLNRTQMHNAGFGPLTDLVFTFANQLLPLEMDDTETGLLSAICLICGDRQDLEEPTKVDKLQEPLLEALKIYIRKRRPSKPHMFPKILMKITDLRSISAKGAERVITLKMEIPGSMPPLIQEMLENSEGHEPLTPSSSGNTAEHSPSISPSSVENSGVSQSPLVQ

LRH-1 target Cyp8B1 = test: hCYP8B1 expression by Q-PCR in C3A HepG2 cells
LRH-1 [5] = target: T1, LRH-1; test: mouse SHP promoter (mSHP1080-Luc) activation by hLRH-1 in HeLa cells; details: 100 μM
PPARδ = PPARδ (Homo sapiens, UniProt Q03181); test: nuclear receptor cotransfection (RE-tk-luc), HeLa cells; details: 100 μM
[6] = tested on: hepatic expression of Cyp7A1, Cyp8B1, mSR-BI, SHP; test: hepatic gene expression (Q-PCR) in wild type mice after oral gavage; type: in vivo, mouse; details: 100 mg/kg oral, five times over three days
Description: as §1

[7] = target: hLRH-1 LBD / SRC-3 receptor interaction domain (Homo sapiens, UniProt O00482); test: mammalian two-hybrid assay, VP16-hLRH1 LBD with Gal4-SRC3 RID in HeLa cells
TRβ = TRβ (Homo sapiens, UniProt P10828); test: nuclear receptor cotransfection (RE-tk-luc), HeLa cells; details: 100 μM
human CAR = human CAR (Homo sapiens, UniProt Q14994); test: as above; details: 100 μM
PPARα = PPARα (Homo sapiens, UniProt Q07869); test: as above; details: 100 μM
Chain of PPARα (Q07869 whole entry, species assumed): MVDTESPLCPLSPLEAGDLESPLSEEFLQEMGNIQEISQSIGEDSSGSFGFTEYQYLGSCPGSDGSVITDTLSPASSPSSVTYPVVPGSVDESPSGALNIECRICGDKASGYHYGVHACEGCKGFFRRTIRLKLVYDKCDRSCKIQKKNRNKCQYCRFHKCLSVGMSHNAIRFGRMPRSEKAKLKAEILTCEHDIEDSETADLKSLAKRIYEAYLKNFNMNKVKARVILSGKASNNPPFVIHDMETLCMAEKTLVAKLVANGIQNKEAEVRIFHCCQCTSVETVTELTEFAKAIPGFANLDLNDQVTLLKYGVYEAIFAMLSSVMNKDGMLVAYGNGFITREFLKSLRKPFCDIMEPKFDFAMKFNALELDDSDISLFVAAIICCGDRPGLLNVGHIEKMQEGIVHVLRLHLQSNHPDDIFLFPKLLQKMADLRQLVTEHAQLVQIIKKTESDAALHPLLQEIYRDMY

PPARγ = PPARγ (Homo sapiens, UniProt P37231); test: as above; details: 100 μM
Chain of PPARγ (P37231 whole entry, species assumed): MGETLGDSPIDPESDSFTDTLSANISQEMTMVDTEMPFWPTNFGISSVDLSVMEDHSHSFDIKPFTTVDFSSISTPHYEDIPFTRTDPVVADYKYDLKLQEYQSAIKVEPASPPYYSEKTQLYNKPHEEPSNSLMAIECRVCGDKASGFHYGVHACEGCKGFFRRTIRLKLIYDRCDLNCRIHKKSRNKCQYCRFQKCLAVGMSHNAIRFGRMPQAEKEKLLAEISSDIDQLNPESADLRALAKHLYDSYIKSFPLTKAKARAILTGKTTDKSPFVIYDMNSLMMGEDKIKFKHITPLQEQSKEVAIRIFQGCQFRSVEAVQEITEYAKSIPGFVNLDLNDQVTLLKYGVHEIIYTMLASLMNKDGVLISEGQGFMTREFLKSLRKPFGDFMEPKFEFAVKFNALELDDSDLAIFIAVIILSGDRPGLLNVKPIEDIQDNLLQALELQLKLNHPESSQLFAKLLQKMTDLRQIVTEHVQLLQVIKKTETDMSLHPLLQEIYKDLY

LRH-1 [8] = target: T1, LRH-1; test: human LRH-1 transactivation, HeLa cotransfection with LRH-1/SF-1 response element luciferase reporter; type: cell-based; design: expressed in transfected cells; host or cells: HeLa (A1, A3); details: HeLa cells
Experimental: Controls (vector only and no lipid) are as indicated. […] Cells were treated with 100 μM of the indicated PCs and luciferase expression (RLU, relative light units) was normalized using an internal β-galactosidase control. vec, empty vector; −, ethanol solvent control.
HeLa cells were transfected with an hLRH-1 expression vector along with mSHP1080-Luc reporter. […] Oct4-PPmut Luc is identical to Oct4-PP Luc except for the insertion of point mutations in the DR0 element. […] HeLa cells were cotransfected with various nuclear receptors and the reporter plasmid (RE-tk-luc). […] Data are expressed for each reporter as fold activation of normalized luciferase activity relative to veh-treated cells.
A number of different phosphatidylcholine (PC) species were screened for effects on human LRH-1 transactivation in HeLa cell cotransfections with a synthetic luciferase reporter containing multiple copies of an LRH-1/SF-1 response element.

ERα = ERα (Homo sapiens, UniProt P03372); test: nuclear receptor cotransfection (RE-tk-luc), HeLa cells; details: 100 μM
mouse CAR = mouse CAR (Mus musculus, UniProt O35627); test: as above; details: 100 μM
Chain of mouse CAR (O35627 whole entry, the tested form may be a part): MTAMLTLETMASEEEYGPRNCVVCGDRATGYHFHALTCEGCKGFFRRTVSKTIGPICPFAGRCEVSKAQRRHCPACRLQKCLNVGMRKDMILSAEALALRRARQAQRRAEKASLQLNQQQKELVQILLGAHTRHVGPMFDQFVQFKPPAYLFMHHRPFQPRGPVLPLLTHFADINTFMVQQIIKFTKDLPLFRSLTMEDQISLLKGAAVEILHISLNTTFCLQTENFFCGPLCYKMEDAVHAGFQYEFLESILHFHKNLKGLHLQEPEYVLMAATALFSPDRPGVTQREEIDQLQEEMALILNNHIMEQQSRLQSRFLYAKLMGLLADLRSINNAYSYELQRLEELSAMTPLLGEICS

GST-hLRH-1 LBD / SRC-3 = GST-hLRH-1 LBD / SRC-3 (Homo sapiens, UniProt O00482); test: GST pulldown, GST-hLRH-1 LBD with in vitro translated 35S-labeled SRC-3
Chain of GST-hLRH-1 LBD / SRC-3 (O00482 300-539 limits assumed): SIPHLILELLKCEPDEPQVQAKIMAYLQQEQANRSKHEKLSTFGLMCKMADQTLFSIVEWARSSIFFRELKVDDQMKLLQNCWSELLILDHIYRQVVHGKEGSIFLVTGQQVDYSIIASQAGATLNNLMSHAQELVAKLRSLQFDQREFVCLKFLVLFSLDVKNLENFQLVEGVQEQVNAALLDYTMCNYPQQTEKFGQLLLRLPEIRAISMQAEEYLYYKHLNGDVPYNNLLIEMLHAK
Chain of GST-hLRH-1 LBD / SRC-3 (Q9Y6Q9 whole entry partner, the tested form may be a part): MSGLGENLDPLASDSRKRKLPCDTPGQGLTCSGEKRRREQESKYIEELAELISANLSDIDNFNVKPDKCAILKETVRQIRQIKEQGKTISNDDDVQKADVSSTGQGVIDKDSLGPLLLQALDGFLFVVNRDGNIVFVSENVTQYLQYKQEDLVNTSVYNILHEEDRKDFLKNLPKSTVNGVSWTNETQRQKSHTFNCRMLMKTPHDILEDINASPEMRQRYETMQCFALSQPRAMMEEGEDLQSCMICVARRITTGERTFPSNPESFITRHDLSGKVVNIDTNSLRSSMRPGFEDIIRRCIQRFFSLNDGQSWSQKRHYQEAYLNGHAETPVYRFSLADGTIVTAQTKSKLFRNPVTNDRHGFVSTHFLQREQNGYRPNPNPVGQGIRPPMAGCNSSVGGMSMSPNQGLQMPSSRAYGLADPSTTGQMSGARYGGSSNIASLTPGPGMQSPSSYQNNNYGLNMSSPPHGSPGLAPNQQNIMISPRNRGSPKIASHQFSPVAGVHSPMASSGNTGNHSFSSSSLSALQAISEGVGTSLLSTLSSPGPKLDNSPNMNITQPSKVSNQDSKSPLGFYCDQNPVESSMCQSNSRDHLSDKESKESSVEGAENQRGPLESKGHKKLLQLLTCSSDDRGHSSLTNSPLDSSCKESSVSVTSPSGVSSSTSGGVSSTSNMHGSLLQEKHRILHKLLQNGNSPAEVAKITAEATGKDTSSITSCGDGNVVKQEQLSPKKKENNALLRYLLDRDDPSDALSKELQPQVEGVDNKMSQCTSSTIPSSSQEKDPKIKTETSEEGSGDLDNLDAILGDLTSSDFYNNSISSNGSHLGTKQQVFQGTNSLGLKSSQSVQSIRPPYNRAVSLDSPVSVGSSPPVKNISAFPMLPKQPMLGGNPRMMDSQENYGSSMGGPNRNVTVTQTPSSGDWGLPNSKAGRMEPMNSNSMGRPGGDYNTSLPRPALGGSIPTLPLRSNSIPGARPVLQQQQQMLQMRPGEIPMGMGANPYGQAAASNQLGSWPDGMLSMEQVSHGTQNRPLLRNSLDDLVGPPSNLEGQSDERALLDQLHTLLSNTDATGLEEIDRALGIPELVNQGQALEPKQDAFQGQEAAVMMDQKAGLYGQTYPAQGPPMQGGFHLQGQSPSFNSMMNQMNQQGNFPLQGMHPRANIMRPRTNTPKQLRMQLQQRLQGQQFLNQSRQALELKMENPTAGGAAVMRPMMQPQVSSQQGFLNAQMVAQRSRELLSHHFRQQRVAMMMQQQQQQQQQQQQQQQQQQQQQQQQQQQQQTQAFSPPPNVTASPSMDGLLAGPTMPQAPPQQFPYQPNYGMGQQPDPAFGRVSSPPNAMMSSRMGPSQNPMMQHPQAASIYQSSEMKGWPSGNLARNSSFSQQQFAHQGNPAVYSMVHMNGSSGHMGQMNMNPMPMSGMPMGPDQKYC

LXRα = LXRα (Homo sapiens, UniProt Q13133); test: nuclear receptor cotransfection (RE-tk-luc), HeLa cells; details: 100 μM

Chain of RXRα (P19793 whole entry): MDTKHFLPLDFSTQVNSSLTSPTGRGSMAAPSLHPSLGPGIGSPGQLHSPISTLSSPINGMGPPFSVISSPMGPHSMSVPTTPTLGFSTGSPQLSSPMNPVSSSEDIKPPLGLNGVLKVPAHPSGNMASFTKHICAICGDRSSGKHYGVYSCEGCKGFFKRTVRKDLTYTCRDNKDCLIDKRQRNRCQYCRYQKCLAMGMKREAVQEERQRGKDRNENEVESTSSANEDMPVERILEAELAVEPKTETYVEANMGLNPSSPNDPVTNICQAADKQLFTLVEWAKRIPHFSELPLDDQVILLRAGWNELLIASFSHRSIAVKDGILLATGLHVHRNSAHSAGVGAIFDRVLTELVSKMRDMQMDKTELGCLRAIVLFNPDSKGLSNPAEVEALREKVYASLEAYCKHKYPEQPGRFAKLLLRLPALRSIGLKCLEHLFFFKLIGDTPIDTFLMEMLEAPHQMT

CCCCCCCCCCC(=O)OCC(COP(=O)([O-])OCC[N+](C)(C)C)OC(=O)CCCCCCCCCC (stereo not drawn) [DUPC, diundecanoylphosphatidylcholine]
activation or inhibition of RXRα (RXRα): did not activate or inhibit | liver bile acids (wild type male mice): somewhat lower | serum bile acid levels (wild type male mice): substantially elevated | serum free fatty acids (wild type male mice): decreased levels | serum glucose levels (wild type male mice): decreased serum glucose levels | total bile acid pool (wild type male mice): significant increase | LRH-1 transactivation response (LRH-1 [1]): similar, but lesser responses | activation or inhibition of human PXR (human PXR): did not activate or inhibit | hepatic gene expression response when LRH-1 gene removed by Cre (LRH-1 [2]): not observed; also recorded: completely absent | LRH-1 Luc luciferase activity (LRH-1 [3]): increased luciferase | activation or inhibition of FXR (FXR): did not activate or inhibit | SF-1 activation (SF-1): activate SF-1 | mouse LRH-1 response versus human LRH-1 (mouse LRH-1): essentially equivalent responses | response with the Oct4 promoter (LRH-1 [4]; COS-1 cells, Oct4-PP Luc): induced a similar response | activation of Oct4-PPmut Luc (LRH-1 [4]; point mutations in the DR0 element): eliminates activation | activation or inhibition of RARβ (RARβ): did not activate or inhibit | expression of Cyp8B1 (LRH-1 target Cyp8B1; C3A/HepG2 cells or cells with non-target control siRNAs): modestly but significantly induced | Cyp8B1 response when LRH-1 expression is knocked down (LRH-1 target Cyp8B1; siRNA hLRH-1): lost | increase of LRH-1 transactivation of the native mouse SHP promoter (LRH-1 [5]): approximately 2 fold | activation or inhibition of PPARδ (PPARδ): did not activate or inhibit | hepatic expression of Cyp7A1 [6]: significantly induced | hepatic expression of Cyp8B1 [6]: significantly induced | hepatic expression of SHP [6]: repressed | hepatic expression of mSR-BI [6]: significantly induced | interaction of hLRH-1 LBD with SRC-3 RID [7]: stimulated | activation or inhibition of TRβ (TRβ): did not activate or inhibit | activation or inhibition of human CAR (human CAR): did not activate or inhibit | activation or inhibition of PPARα (PPARα): did not activate or inhibit | activation or inhibition of PPARγ (PPARγ): did not activate or inhibit | LRH-1 transactivation (luciferase) (LRH-1 [8]; 100 μM): responses | pEC50 (LRH-1 [8]; reporter gene, dose response 1-250 μM, read-out: EC50 for activation of hLRH-1): ~4.22 and 4.24 | activation or inhibition of ERα (ERα): did not activate or inhibit | activation or inhibition of mouse CAR (mouse CAR): did not activate or inhibit | interaction of GST-LRH1 with SRC-3 (GST-hLRH-1 LBD / SRC-3; GST pulldown, 100 μM): further increased | increase of SRC-3 binding (GST-hLRH-1 LBD / SRC-3; PhosphorImager quantitation): approximately 3 fold | activation or inhibition of LXRα (LXRα): did not activate or inhibit
